By inhibition is commonly meant the relative decrease from the control value, in per cent.

Molecules are shown by their SMILES. Active and inactive are the calls of the source. No cut-off for these calls is given here.

This note sets out measurements from ChEMBL document CHEMBL4219192, “Structural analysis and antioxidant activity of the glycoside from Imperial Chrysanthemum” (Bioorg Med Chem Lett, 2018).

Assay type in all cases: functional
The nature of experiment [1]: Antioxidant activity assessed as ABTS radical scavenging activity at 2.5 mg/ml after 6 mins relative to control.
The nature of experiment [2]: Antioxidant activity assessed as inhibition of superoxide radical generation up to 0.6 mg/ml after 4 mins by pyrogallol autoxidation method relative to control.
A short description of experiment [3]: Antioxidant activity assessed as hydroxyl radical scavenging activity at 2.5 mg/ml preincubated for 20 mins followed by salicylic acid addition measured after 60 mins by fenton reaction method relative to control.
A short description of experiment [4]: Antioxidant activity assessed as DPPH radical scavenging activity up to 0.6 mg/ml after 30 mins by absorbance method relative to control. (In general: The DPPH test is a chemical assay of radical scavenging.)
Experiment [5] can be described thus: Antioxidant activity assessed as inhibition of superoxide radical generation at 2.5 mg/ml after 4 mins by pyrogallol autoxidation method relative to control.
The nature of experiment [6]: Antioxidant activity assessed as DPPH radical scavenging activity at 2.5 mg/ml after 30 mins by absorbance method relative to control.
Experiment [7] is described as follows: Antioxidant activity assessed as hydroxyl radical scavenging activity preincubated for 20 mins followed by salicylic acid addition measured after 60 mins by fenton reaction method relative to control.
Experiment [8] in a line: Antioxidant activity assessed as inhibition of superoxide radical generation after 4 mins by pyrogallol autoxidation method.

`O=C1O[C@H]([C@@H](O)CO)C(O)=C1O`: the figures for the Activity in experiment [1] and in experiment [3] were 96.8% and 94.9%, respectively. In addition, the inhibition result in experiment [2] was “Active”. Besides, the result in experiment [4] was Active.

`OCOC1COC(S)(O[C@@H]2O[C@H](CO)[C@@H](O)[C@H](O)[C@H]2O)C1OCO` (stereo not given in full): the Activity was 83.3% in experiment [1], 83.9% in experiment [6], “Dose-dependent effect” in experiment [7] and 76.2% in experiment [3]. Also, the values for the inhibition in experiment [5] and in experiment [8] were 73.9% and “Dose-dependent effect”, respectively.
